Data set [1] is described as follows: Oral bioavailability in rat at 3 mg/kg. The data set is classed as ADME, organism-based. The following applies: in vivo.
Data set [2] in a line: Permeability from apical to basolateral side of MDR1 transfected MDCK cells at 1 uM. The class given is ADME, cell-based, Canis lupus familiaris. The following applies: dog, read-out: permeability.
Data set [3] deals with Metabotropic glutamate receptor 1 (Homo sapiens) (UniProt Q13255). Put plainly: Agonist activity at mGlu1 receptor at up to 10 uM. The class given is functional.
Metabotropic glutamate receptor 1 (Homo sapiens), sequence (Q13255 19-1194 limits assumed): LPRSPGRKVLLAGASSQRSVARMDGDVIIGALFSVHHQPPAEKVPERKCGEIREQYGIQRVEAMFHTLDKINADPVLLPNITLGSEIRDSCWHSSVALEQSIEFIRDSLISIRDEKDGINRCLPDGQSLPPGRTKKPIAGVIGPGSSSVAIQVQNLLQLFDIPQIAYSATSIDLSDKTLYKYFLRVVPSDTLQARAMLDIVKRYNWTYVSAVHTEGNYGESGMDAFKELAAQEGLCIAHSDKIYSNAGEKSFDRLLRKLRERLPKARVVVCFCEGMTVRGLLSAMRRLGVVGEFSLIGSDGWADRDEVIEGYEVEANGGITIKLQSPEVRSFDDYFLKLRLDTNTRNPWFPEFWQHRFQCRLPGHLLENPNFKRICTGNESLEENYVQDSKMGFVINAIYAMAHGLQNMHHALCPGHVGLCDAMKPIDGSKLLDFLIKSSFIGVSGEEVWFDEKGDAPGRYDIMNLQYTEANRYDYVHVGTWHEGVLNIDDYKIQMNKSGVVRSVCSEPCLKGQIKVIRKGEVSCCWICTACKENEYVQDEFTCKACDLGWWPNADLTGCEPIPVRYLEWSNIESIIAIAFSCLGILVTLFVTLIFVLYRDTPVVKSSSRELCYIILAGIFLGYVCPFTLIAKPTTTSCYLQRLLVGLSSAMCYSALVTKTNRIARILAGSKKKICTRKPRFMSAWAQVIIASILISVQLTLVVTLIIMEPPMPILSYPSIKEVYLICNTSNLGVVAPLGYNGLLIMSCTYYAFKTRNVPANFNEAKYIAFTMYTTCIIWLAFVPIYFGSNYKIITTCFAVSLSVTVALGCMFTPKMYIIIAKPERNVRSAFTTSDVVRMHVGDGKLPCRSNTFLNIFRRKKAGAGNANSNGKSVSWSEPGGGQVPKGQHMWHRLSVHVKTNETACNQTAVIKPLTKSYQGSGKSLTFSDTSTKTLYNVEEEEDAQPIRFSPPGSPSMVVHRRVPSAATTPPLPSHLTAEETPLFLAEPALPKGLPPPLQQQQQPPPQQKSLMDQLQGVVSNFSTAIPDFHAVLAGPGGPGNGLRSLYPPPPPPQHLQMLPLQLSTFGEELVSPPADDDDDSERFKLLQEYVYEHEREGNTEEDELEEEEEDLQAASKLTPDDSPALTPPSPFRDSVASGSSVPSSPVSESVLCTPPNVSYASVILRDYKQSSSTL
Data set [4] relates to Mus musculus. Put plainly: Antipsychotic activity in sc dosed mouse assessed as inhibition of methamphetamine-induced hyperlocomotion measured for 60 mins. The class given is functional.
The nature of data set [5]: Plasma clearance in rat at 0.5 mg/kg, iv. The data set is classed as ADME, organism-based. The arrangement: dose 0.5 mg/kg, route intravenous.
Data set [6] concerns the target Metabotropic glutamate receptor 5 (Homo sapiens) (UniProt P41594). Put plainly: Positive allosteric modulation of mGlu5 receptor at up to 10 uM.
Data set [7] can be described thus: Ratio of drug level in brain to plasma in mouse at 10 mg/kg, sc after 60 mins. The data set is classed as ADME, organism-based. The arrangement: dose 10 mg/kg, route subcutaneous.
Data set [8] concerns the target D(2) dopamine receptor (Rattus norvegicus, UniProt P61169). Put plainly: Displacement of [3H]spiperone from dopamine D2 receptor in rat corpus striatum by beta plate scintillation counting. The data set is classed as tissue-based.
Data set [9] relates to Mus musculus. Put plainly: Antipsychotic activity in sc dosed CD1 mouse assessed as inhibition of mescaline-induced scratching behavioral response administered 20 mins before mescalin challenge measured for 12 mins. The data set is classed as functional.
Data set [10] concerns the target Metabotropic glutamate receptor 1 (Homo sapiens) (UniProt Q13255). Put plainly: Antagonist activity at mGlu1 receptor at up to 10 uM. The class given is functional.
Data set [11] is described as follows: Cmax in rat brain at 3 mg/kg, po. The class given is ADME, organism-based. Also noted: dose 3 mg/kg, route oral.
Data set [12] concerns the target Metabotropic glutamate receptor 5 (Homo sapiens) (UniProt P41594). Briefly: Antagonist activity at mGlu5 receptor at up to 10 uM. The data set is classed as functional.
The test system of a further data set is Brain. Briefly: Fraction unbound in rat brain by LC-MS/MS assay. The class given is ADME, tissue-based.
Data set [13] is described as follows: Ratio of drug level in brain to plasma in rat at 3.2 mg/kg, sc after 60 mins. The data set is classed as ADME, organism-based. The arrangement: dose 3.2 mg/kg, route subcutaneous.
For data set [14], the target named is Metabotropic glutamate receptor 5 (Homo sapiens) (UniProt P41594). Briefly: Agonist activity at mGlu5 receptor at up to 10 uM. The data set is classed as functional.
Metabotropic glutamate receptor 5 (Homo sapiens), sequence (P41594 21-1212 limits assumed): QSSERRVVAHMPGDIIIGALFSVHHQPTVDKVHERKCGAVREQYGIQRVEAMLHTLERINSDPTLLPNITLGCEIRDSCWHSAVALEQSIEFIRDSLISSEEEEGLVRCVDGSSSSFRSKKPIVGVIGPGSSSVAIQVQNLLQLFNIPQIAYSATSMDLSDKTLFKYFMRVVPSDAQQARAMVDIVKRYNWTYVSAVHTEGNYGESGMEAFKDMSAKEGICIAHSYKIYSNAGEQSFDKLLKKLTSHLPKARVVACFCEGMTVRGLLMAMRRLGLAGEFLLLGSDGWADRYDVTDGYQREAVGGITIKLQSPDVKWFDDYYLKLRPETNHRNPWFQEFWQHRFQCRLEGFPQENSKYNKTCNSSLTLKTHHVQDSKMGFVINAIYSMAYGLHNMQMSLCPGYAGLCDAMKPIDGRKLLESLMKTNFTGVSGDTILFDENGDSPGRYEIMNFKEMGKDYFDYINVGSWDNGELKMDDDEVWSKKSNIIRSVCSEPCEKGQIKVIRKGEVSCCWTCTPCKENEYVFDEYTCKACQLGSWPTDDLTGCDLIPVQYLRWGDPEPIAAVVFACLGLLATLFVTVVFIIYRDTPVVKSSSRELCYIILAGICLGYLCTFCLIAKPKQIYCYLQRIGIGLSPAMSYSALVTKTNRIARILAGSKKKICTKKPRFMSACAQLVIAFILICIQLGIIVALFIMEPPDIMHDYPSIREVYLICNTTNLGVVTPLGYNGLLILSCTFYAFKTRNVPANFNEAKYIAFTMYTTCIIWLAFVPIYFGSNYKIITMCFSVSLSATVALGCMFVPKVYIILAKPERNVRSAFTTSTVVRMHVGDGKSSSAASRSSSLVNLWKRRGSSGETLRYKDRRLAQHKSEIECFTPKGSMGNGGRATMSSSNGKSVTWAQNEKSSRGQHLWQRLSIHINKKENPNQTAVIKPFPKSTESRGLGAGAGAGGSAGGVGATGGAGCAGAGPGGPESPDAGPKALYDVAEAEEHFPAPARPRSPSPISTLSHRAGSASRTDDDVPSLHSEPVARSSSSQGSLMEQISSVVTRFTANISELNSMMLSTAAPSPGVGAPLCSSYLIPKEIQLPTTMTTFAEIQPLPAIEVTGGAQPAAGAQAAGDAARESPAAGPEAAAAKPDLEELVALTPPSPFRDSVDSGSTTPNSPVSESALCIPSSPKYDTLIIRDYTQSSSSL
A short description of data set [15]: Cmax in rat brain at 10 mg/kg, po. The data set is classed as ADME, organism-based. Also noted: dose 10 mg/kg, route oral.
The target of data set [16] is Metabotropic glutamate receptor 2 (Homo sapiens, UniProt Q14416). Put plainly: Positive allosteric modulation of human mGluR2 expressed in HEK293 cells co-expressing Galpha15 G protein assessed as increase in glutamate-induced intracellular calcium release by FLIPR assay. The data set is classed as functional, cell-based. On the technique in general: A change in cytosolic calcium serves as a functional read-out for many receptors and channels.
Metabotropic glutamate receptor 2 (Homo sapiens, UniProt Q14416), sequence (Q14416 whole entry): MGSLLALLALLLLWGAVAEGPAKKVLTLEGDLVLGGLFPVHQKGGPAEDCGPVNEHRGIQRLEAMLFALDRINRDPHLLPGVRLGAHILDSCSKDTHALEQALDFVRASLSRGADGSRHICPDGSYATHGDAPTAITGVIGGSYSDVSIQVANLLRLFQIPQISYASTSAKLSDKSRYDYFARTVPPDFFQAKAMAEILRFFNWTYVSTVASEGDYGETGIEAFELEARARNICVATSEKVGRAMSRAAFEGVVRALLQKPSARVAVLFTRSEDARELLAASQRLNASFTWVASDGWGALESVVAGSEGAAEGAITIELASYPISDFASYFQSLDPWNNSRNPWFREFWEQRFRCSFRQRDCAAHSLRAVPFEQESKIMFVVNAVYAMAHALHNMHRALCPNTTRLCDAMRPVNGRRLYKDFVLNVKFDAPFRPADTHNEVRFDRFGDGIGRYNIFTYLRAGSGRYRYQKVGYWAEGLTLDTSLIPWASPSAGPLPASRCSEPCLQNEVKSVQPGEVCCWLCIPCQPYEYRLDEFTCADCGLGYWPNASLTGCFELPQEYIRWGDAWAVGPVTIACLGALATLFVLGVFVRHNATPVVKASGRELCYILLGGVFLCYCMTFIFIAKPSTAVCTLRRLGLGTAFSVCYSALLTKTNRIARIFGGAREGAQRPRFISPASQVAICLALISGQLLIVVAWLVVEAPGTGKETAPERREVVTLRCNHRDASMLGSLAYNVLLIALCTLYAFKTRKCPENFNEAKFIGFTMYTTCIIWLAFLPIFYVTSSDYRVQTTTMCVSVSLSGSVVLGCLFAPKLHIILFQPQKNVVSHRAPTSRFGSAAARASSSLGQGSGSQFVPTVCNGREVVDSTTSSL

Data set [17] can be described thus: Plasma clearance in rat at 1 mg/kg, iv. The data set is classed as ADME, organism-based. Also noted: dose 1 mg/kg, route intravenous.
In a further data set the test system is HEK293. Briefly: Selectivity ratio of Ki for dopamine D2 receptor in rat corpus striatum to EC50 for rat mGluR2 expressed in HEK293 cells. The data set is classed as cell-based.
Data set [18] is described as follows: Oral bioavailability in rat at 10 mg/kg. To be noted: in vivo. The class given is ADME, organism-based.
The next data set deals with MDCK. Put plainly: Efflux ratio of permeability from […] of MDR1 transfected MDCK cells at 1 uM. The data set is classed as ADME, cell-based, Canis lupus familiaris. The following applies: dog.
The target of data set [19] is Metabotropic glutamate receptor 2 (Rattus norvegicus, UniProt P31421). Briefly: Positive allosteric modulation of rat mGluR2 expressed in HEK293 cells co-expressing Galpha15 G protein assessed as increase in glutamate-induced intracellular calcium release by FLIPR assay. The class given is functional, cell-based.
Metabotropic glutamate receptor 2 (Rattus norvegicus, UniProt P31421), sequence (P31421 whole entry): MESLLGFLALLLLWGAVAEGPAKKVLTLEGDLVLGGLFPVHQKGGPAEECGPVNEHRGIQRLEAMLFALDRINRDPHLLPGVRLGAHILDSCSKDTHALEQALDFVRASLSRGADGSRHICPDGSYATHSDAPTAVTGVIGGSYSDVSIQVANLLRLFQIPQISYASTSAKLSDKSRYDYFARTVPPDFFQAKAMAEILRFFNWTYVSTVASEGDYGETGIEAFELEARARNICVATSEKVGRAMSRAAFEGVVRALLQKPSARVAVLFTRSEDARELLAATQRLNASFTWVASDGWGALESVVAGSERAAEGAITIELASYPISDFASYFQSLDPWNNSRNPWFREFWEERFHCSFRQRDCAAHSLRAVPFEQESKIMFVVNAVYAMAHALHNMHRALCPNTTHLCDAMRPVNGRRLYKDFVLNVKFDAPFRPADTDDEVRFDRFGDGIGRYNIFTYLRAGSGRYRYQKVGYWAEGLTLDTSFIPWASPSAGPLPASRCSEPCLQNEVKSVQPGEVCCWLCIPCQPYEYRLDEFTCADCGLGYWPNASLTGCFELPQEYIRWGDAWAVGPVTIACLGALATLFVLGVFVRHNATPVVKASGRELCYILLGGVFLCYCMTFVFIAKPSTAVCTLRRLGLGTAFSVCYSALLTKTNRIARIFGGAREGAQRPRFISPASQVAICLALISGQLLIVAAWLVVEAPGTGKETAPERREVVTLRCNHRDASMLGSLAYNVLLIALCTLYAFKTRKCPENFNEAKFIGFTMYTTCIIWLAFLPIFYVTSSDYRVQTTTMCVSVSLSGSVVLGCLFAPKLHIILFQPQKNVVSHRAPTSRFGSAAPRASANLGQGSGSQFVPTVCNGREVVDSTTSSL
Data set [20] in a line: Cmax in rat brain at 5 mg/kg, po. The data set is classed as ADME, organism-based. The arrangement: dose 5 mg/kg, route oral.
In data set [21] the target is Histamine H1 receptor (Homo sapiens) (UniProt P35367). Put plainly: Binding affinity to histamine H1 receptor at 3.16 uM.
For data set [22], the target named is 5-hydroxytryptamine receptor 2B (Homo sapiens) (UniProt P41595). Briefly: Binding affinity to 5HT2B receptor at 3.16 uM.
Data set [23] has as its target T1, Alpha-2A adrenergic receptor (Homo sapiens) (UniProt P08913).
T1 sequence (whole entry): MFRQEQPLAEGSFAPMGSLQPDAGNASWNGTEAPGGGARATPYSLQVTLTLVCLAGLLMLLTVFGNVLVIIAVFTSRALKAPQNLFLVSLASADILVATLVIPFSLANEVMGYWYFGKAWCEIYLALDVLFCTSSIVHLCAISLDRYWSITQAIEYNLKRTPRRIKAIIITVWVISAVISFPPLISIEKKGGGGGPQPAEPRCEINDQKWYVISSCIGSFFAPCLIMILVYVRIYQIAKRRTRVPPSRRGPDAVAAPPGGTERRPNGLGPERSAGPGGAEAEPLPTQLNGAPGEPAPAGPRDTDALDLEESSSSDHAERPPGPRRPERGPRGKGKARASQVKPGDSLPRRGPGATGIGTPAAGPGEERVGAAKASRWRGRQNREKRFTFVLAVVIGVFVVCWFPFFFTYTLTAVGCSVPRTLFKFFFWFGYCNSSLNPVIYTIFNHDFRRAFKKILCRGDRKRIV
Put plainly: Binding affinity to adrenergic alpha2A receptor at 3.16 uM.

Data set [24] deals with T2, 5-hydroxytryptamine receptor 1A (Homo sapiens) (UniProt P08908).
T2 sequence (whole entry): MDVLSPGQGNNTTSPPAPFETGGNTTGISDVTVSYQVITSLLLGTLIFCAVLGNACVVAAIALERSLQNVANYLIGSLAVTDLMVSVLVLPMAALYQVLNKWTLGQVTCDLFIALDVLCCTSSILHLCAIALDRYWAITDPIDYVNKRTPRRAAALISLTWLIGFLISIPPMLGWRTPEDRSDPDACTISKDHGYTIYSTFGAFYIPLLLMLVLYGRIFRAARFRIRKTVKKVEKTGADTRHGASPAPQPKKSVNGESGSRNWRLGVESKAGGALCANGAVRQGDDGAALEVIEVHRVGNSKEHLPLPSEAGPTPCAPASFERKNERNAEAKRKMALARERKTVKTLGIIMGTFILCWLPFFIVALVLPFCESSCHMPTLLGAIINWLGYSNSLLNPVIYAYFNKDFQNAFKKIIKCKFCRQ
Put plainly: Binding affinity to 5HT1A receptor at 3.16 uM.

The target of data set [25] is D(2) dopamine receptor (Homo sapiens, UniProt P14416). Put plainly: Antagonist activity at human dopamine D2 receptor expressed in CHO cells assessed as inhibition of quinpirole-induced effect. The class given is functional, cell-based.
In data set [26] the target is 5-hydroxytryptamine receptor 2A (Homo sapiens) (UniProt P28223). Put plainly: Binding affinity to 5HT2A receptor at 3.16 uM.
5-hydroxytryptamine receptor 2A (Homo sapiens), sequence (P28223 whole entry): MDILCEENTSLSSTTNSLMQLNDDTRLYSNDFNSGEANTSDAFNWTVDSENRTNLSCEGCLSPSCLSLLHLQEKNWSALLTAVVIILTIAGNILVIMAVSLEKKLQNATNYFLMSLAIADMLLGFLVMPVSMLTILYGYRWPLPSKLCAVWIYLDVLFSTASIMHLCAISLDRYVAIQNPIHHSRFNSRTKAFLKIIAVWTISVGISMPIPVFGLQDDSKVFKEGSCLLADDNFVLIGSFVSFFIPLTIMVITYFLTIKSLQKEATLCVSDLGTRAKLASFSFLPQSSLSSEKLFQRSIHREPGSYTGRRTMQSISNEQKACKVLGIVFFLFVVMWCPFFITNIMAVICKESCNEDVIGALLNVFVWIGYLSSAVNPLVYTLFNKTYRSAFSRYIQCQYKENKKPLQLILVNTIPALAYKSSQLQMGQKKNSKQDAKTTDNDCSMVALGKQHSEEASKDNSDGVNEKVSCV
In data set [27] the target is T3, Muscarinic acetylcholine receptor M1 (Homo sapiens) (UniProt P11229).
T3 sequence (whole entry): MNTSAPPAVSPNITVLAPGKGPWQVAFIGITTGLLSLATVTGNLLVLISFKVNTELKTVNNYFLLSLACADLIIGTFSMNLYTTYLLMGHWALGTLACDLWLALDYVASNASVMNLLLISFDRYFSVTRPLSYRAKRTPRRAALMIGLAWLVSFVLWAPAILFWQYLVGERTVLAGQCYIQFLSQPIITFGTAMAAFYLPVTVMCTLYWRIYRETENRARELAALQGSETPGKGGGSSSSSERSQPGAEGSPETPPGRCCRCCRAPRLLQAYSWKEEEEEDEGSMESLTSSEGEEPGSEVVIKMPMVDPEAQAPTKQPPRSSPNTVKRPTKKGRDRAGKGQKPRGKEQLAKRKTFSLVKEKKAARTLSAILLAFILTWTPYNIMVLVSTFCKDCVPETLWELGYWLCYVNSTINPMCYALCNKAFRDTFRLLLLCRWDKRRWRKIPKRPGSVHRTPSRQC
Briefly: Binding affinity to muscarinic M1 receptor at 3.16 uM.

The target in a further data set is hERG (KCNH2) (Homo sapiens, UniProt Q12809). Put plainly: Binding affinity to human ERG at 3.16 uM.

Consider five compounds from ChEMBL document CHEMBL1773004, “1-[(1-methyl-1H-imidazol-2-yl)methyl]-4-phenylpiperidines as mGluR2 positive allosteric modulators for the treatment of psychosis” (J Med Chem, 2011).

Active and inactive are the calls of the source. The calls are words filed in the database; no cut-off is given here.

D(2) dopamine receptor (Rattus norvegicus, UniProt P61169), sequence (P61169 whole entry): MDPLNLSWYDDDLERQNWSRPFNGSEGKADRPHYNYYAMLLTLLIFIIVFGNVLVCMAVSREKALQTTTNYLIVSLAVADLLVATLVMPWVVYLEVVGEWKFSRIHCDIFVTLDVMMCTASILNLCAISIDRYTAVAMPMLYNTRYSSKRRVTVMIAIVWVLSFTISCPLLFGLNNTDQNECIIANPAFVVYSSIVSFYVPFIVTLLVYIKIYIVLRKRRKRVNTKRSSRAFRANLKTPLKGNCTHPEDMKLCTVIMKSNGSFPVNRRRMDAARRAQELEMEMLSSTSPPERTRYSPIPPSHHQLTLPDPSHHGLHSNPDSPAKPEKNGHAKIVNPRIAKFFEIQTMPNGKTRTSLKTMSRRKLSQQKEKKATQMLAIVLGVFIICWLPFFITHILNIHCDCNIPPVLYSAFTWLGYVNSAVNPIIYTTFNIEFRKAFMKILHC

Consider `C[C@H]1CN(Cc2nc3ncccc3n2C)CC[C@H]1c1ccc(OC(F)(F)F)cc1F`, for which the bioavailability (commonly dose-corrected exposure relative to a reference, in per cent) in data set [1] stood at 50%. Besides, the Papp A→B at 1 µM in data set [2] was 14 ×10⁻⁶ cm/s. Moreover, the result in [3], in data set [6], in data set [10], in data set [12] and in [14] was inactive. For the same compound, the inhibition entry in the data set with Mus musculus [4] and with Mus musculus [9] was “Dose-dependent effect” in each case. The minimal effective dose with Mus musculus [4] (1 h, read-out: MED) stood at 17.8 mg/kg; in the data set with Mus musculus [9] (read-out: MED), 10 mg/kg. For the same compound, the clearance – broadly, the rate of elimination divided by the concentration – in data set [5] was 4.5 mL/min/kg. Further, the Kp (in general, the ratio of the level in a tissue or fluid to that in plasma or blood) at 1 h turned out to be 1.2 in data set [7] and 4 in data set [13]. Besides, the Ki (as a rule, a measure of affinity in units of concentration, obtained from inhibition or displacement) at D(2) dopamine receptor [8] was greater than 4680 nM. The concentration in [11] peaked (Cmax) at 1070 nM. Also, the Fu with Brain was 0.3%.
With `C[C@H]1CN(Cc2nc3ncccc3n2C)CC[C@H]1c1ccc(C(F)(F)F)cc1F`, the Papp A→B at 1 µM in data set [2] stood at 26 ×10⁻⁶ cm/s. The result in data set [3], in data set [6], in data set [10], in data set [12] and in data set [14] was inactive. Moreover, the concentration in [15] peaked (Cmax) at 3120 nM. The EC50 (as a rule, the concentration at which the effect is half-maximal) is 3 nM in data set [16] and 9 nM in data set [19]. In addition, in data set [17], the clearance was determined as 7.5 mL/min/kg. The values for the Ratio in the data set with HEK293 and in the data set with MDCK were greater than 584 and 1.7, respectively. Besides, the figures for the Kp at 1 h in data set [7] and in data set [13] were 1.9 and 7, respectively. The compound also displayed a bioavailability in data set [18] of 74%. This compound came in with a Ki at D(2) dopamine receptor [8] greater than 5260 nM. The same compound yielded a Fu in the data set with Brain of 0.5%.
Regarding `COc1cc(C(F)(F)F)ccc1[C@@H]1CCN(Cc2nc3ncccc3n2C)C[C@@H]1C`, the Cmax – broadly, the maximum level reached in the sampled fluid or tissue – in data set [20] worked out at 1580 nM. The Papp A→B at 1 µM in data set [2] worked out at 19 ×10⁻⁶ cm/s. Moreover, the outcome in [3], in data set [6], in data set [10], in [12] and in [14] was inactive. Further, the EC50 in [16] is 76 nM; in data set [19] it was 22 nM. For the same compound, the values for the Ratio in the data set on HEK293 and with MDCK were greater than 239 and 1.5, respectively. The figures for the Kp at 1 h in data set [7] and in data set [13] were 1.7 and 8, respectively. Also, the Ki at D(2) dopamine receptor [8] was greater than 5260 nM. Moreover, the Fu in the data set on Brain turned out to be 0.6%.
Take `COc1ccccc1C1CCN(Cc2nc3ccccc3n2C)CC1`: the Papp A→B at 1 µM in [2] is 25.8 ×10⁻⁶ cm/s. Moreover, the result in data set [3], in data set [6], in data set [10], in [12] and in data set [14] was inactive. Also, the inhibition in data set [21], in [22], in data set [23], in [24], in [26] and in [27] was less than 50% throughout. Further, the Ki on D(2) dopamine receptor [8] turned out to be 426 nM. In addition, the Ratio in the data set with MDCK is on record as 1.28. In addition, the results for the EC50 (at D(2) dopamine receptor [25]; in [19]) were 951 nM and 87 nM, respectively. The inhibition (commonly the change of the read-out against control, counted positive when it falls) at 3.16 µM on hERG (KCNH2) was less than 50%.
As to `Cn1c(CN2CCC(c3ccc(C(F)(F)F)cc3)CC2)nc2ncccc21`, the Papp A→B at 1 µM in data set [2] was 30 ×10⁻⁶ cm/s. This compound also registered a Cmax in data set [15] of 5210 nM. The EC50 in data set [16] was 43 nM; in [19] it was 48 nM. In addition, the clearance in data set [17] is 5.4 mL/min/kg. Besides, the results for the Ratio in the data set with HEK293 and with MDCK were 8 and 1.4, respectively. This compound also displayed a bioavailability in data set [18] of 100%. In addition, at D(2) dopamine receptor [8], the Ki came out at 404 nM. Further, the Kp at 1 h in [13] was 5.
